pEC50, pIC50: −log10 of the molar value. Counter-ions that a name gives are not always drawn. Like-named read-outs stand apart in the source and are kept apart here.
Experiments:
pre-contracted trachea = assay: Relaxation of pre-contracted isolated trachea; design: species or system guinea pig; details: Cavia porcellus; carbamylcholine 0.3 μM, Krebs buffer, 37° C.
Description: Compounds according to the invention were tested for their ability to relax a pre-contracted trachea. A contraction of the respiratory passages in combination with a swelling of the mucuos membrane therein presents a vital factor at asthmatic conditions. Relaxation or dilation of the contracted respiratory passages will improve the asthmatic condition.
An isolated trachea from a guinea pig is used. After preparation of a strip which has maintained the circular musculature, the organ is divided into two parts of equal size. The two tracheal strips are suspended in their respective organ bath and connected to a transducer recording the contraction and relaxation of the organ by means of a recorder. The two tracheal strips are continuously bathed in a Krebs buffer at 37° C., constantly bubbled with carbogen (95% O2 and 5% CO2). After an equilibration time of about 3 hours the organs are tested for their sensitivity (contractility) to carbamylcholin a bolus being added directly to the bath (0.3 μM). If the contraction is satisfactory, the organs are transferred to the Krebs buffer containing the same concentration of carbamylcholine. The organs are now constantly exposed to the carbamylcholine and slowly develop a permanent contraction ("asthma"). The test substances are in bolus form added directly to the organ bath. After maximum effect (relaxation) the substances are removed by washing out and the tracheal strip reverts to its permanent contraction state. […] An EC50 -value (that is the concentration relaxing the organ by 50% relative to the maximum relaxation) is calculated for each test substance by means of a linear regression analysis (log concentration (μM) as a constant ad abscissa and % relaxation as variable ad ordinate). Sodium nitroprusside (NNP) and SIN-1 are used as reference substances.

LD50 test, intravenous = assay: LD50 test, intravenous; design: species or system mice; details: mouse, in vivo, single injection, read-out: LD50 with 95% confidence limits
Description: (§1) Two tests were carried out on male rats, namely a determination of the "maximum tolerable dose" (MTD) and a test using multiple peroral doses. In addition, a LD50 test was carried out intravenously on mice.
(According to Litchfield and Wileoxon, J. Pharmacol. Exp. Therap. 96, 99-113, 1949).
The intravenous LD50 -value was determined after one single injection of different doses of the compound prepared in Example 4.

PAI-1 = assay: Inhibition of plasminogen activator inhibitor (PAI-1) from blood platelets (fibrinolytic activity); type: cell-based, human; details: 50 μM, 60 minutes; for % Inhibition of PAI-1 activity: compared to control; for PAI-1 activity: human PRP, control 3.24
Description: Compounds according to the invention were tested for their inhibition of plasminogen activator inhibitor (PAI). An established thrombus comprises aggregated platelets cohered by fibrin. The organism has a fibrinolyric system for maintaining normal physiological conditions. Endogenous plasminogen is activated to plasmin (fibrinolysin, that is a proteolytic enzyme decomposing fibrin) by means of a tissue plasminogen activator (t-PA). The platelets include the enzyme PAI-1 inhibiting the activation of plasminogen to plasmin, and thus also the decomposition of fibrin.
A general stimulation of the fibrinolytic system can cause serious hemostatic side effects (haemorrhages). A specific inhibition of PAI-1 induces an increased fibrinolysis in areas with many platelets, which is exactly the case in thrombi. As a result a thrombolytic effect is obtained.
Human PRP prepared by slight centrifugation as previously mentioned is used, but at a low temperature (4° C.). By incubation of PRP (1 ml in a plastic tube) during a slight shaking at 37° C. the PAI-1 activity is liberated, said PAI-1 activity being measured spectrophotometrically by means of a two-step procedure using commercial kits (Spectrolyse™/fibrin kit from BIOPOOL, Sweden).
The PAI-1 activity of the control PRP and PRP incubated with each of 6 compounds according to the invention and the reference substance sodium niroprusside (NNP) (50 μM of each for 60 minutes) appear from Table 6.

[1] = target: T1, soluble guanylate cyclase (Homo sapiens, UniProt Q02153); assay: Stimulation of guanylate cyclase from blood platelets (RIA); type: biochemical; details: 37° C.
T1 construct: The guanylate cyclase activity in the supernatant after incubation with and without the test substance; endogenous in cells; host or cells: human blood platelets, supernatant of homogenate
T1 sequence (Q02153 1-619): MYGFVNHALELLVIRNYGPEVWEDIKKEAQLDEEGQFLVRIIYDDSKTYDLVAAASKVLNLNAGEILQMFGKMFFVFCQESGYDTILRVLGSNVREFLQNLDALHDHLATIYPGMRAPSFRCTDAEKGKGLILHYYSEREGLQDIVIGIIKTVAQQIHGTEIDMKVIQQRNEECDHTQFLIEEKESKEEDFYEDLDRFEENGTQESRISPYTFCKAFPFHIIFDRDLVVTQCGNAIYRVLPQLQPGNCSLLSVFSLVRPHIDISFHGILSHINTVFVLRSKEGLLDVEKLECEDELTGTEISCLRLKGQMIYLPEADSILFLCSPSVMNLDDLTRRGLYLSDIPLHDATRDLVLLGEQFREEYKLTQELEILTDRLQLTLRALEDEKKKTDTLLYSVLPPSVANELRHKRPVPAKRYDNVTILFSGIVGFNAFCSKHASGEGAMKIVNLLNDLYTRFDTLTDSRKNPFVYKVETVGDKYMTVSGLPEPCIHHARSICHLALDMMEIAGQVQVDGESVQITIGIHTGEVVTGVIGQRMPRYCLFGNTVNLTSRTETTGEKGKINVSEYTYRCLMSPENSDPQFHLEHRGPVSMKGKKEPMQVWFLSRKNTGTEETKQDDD
T1 sequence (Q02108 1-690 partner): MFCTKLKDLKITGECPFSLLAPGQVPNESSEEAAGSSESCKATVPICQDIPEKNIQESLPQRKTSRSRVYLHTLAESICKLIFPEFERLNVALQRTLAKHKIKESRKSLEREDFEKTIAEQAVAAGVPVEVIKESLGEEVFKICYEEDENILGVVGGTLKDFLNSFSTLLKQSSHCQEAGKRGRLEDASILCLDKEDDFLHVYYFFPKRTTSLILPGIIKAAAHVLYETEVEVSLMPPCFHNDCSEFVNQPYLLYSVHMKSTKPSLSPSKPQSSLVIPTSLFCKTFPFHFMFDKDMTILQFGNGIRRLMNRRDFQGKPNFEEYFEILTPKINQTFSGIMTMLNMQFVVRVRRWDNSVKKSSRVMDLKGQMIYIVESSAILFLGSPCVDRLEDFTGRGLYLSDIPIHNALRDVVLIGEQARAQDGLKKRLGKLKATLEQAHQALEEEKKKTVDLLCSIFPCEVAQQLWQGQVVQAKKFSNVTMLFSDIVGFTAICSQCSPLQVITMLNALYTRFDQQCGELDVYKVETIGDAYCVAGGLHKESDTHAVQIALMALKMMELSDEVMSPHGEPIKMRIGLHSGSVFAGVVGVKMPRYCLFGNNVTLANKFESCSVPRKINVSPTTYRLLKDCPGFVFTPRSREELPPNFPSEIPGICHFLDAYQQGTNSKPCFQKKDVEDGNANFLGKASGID

[2] = test system: polymorph nuclear leukocytes (PMNs), c-GMP; assay: Stimulation of c-GMP content in PMNs; type: cell-based, human; details: 37° C., 10 minutes
Description: (§2) Compounds according to the invention were tested for their ability to increase the content of cyclic guanosine monophosphate (c-GMP), to inhibit the synthesis of the leukotriene B4 (LTB4), and to inhibit the chemotactical movement of polymorph nuclear leukocytes (PMN). The polymorph nuclear leukocytes play a vital part in the cellular part of the inflammation process. At diseases, such as asthma, the mucuos membrane of the respiratory passages is swollen as a result of an inflammation with a significant infiltration of polymorph nuclear leukocytes (PMN's) in particular. Particularly effective substances for the treatment of asthma are such which in addition to relaxing the musculature in the respiratory passages also have an anti-inflammatory effect on the cellular phase of the inflammatory process, that is inhibiting the leukocyte function.
(§3) Isolated human PMNs are incubated at 37° C. for 10 minutes, whereafter the content of cyclic guanosine monophosphate (c-GMP) is measured. Further, the synthesis of the LTB4 is determined after stimulation with Ca-ionophore (A23187) and the chemotaxis (controlled movement) towards FMLP (a substance attracting the polymorph nuclear leukocytes, PMNs) is determined.
Three compounds according to the invention and the reference substance SIN-1 were tested for their ability to stimulate the content of cyclic guanosine monophosphate (c-GMP).

blood platelets = assay: Inhibition of blood platelet aggregation (aggregometer, ADP); type: cell-based, human (healthy testees); details: Platelet, 0.05 h; human PRP, ADP 2 to 4 μM, 3 min incubation, 37° C.; read-out: IC50 (Inhibition of blood platelet aggregation)
Description: Compounds according to the invention were tested for their inhibition of clumping together (aggregation) of blood platelets (thrombocytes), which is the first phase of the formation of blood clots (thrombi). Such an inhibition may prevent the formation of blood clots and inhibit the development of new thrombi after a diagnosed thrombus.
Citrate stabilized ( 0.38% of sodium citrate, final concentration) venous blood from healthy testees is used, who have not used medicine for at least 8 days. Slight centrifugation (160×g for 10 minutes) results in PRP (blood plasma rich in platelets) which is pipetted. PPP (blood plasma poor in platelets) is obtained by an intense centrifugation (3000×g for 10 minutes) of the remaining blood. The light transmission is measured by the aggregometer (CHRONOLOG). PRP allows nearly no light transmitaaion, while PPP allows complete transmission of light. The PRP is placed in the aggregometer at 37° C. while being stirred by a magnet. Addition of a pro-aggregating substance causes the PRP to aggregate gradually and an increasing light transmission takes place at the same time. At complete aggregation a light transmission corresponding to PPP is obtained. Adnosine diphosphate (ADP) is used as pro-aggregating substance, said substance representing a basic biochemical mechanism for aggregation of blood platelets. The test substances are incubated for 3 minutes in PRP placed in the aggregometer at 37° C. during magnetic stirring. A predetermined positively aggregating dosage of adenosine diphosphate (ADP) (2 to 4 μM) is then added. […] A so-called IC50 -value (that is the concentration inhibiting the aggregation by 50% relative to the control aggregation) is calculated for each test substance by linear regression analysis (log concentration μM as constant ad abscissa and % inhibition as variable ad ordinate). The following known reference substances have been used: nitroglycerine (GTN), sodium nitroprusside (NNP) and SIN-1 (the active metabolite of molsidomine).

[3] = test system: polymorph nuclear leukocytes (PMNs); assay: Inhibition of PMN chemotaxis towards FMLP; type: cell-based, human
Description: as §2, §3

[4] = test system: polymorph nuclear leukocytes (PMNs), LTB4 synthesis; assay: Inhibition of leukotriene B4 synthesis in PMNs after Ca-ionophore (A23187); type: cell-based, human
Description: as §2, §3

male rats = details: rat, in vivo, po, 20 mg/kg
Description: as §1
At this test the substances were administered perorally in a dose of 20 mg per kg. as solutions or suspensions once a day for 5 days to groups of 5 animals. Clinical observations were made every day and the above hematological parameters were measured on the third day of the test.

Structure (SMILES) | pEC50 (pre-contracted trachea) | Guanylate cyclase activity ([1]; 0.01 μM) | Guanylate cyclase activity ([1]; 10 μm (so in the source)) | pIC50 (blood platelets) | also measured
[NH-]c1n[n+](-c2ccc(C(F)(F)F)cc2)no1 [Example 4] | – | – | – | – | LD50 (LD50 test, intravenous; female mice): 81 mg/kg; LD50 (LD50 test, intravenous; male mice): 89 mg/kg
Cc1cccc(C)c1-[n+]1noc([NH-])n1 [Example 12] | 5.31 | – | – | – | % Inhibition of PAI-1 activity (PAI-1): 37%; PAI-1 activity (PAI-1): 2.04 U/10^8 platelets
Cc1c(Cl)cccc1-[n+]1noc([NH-])n1 [Example 29, 3-(3-chloro-2-methylphenyl)-1,2,3,4-oxatriazole-5-imine] | 6.10 | 4407 pmole c-GMP/mg prot. × 15 minutes | 61900 pmole c-GMP/mg prot. × 15 minutes | – | % Inhibition of PAI-1 activity (PAI-1): 39%; PAI-1 activity (PAI-1): 1.97 U/10^8 platelets; c-GMP in PMNs ([2]; 1 μM): 209 fmole/10^6 cells; c-GMP in PMNs ([2]; 10 μM): 859 fmole/10^6 cells; c-GMP in PMNs ([2]; 100 μM): 1044 fmole/10^6 cells
CC(=O)Oc1ccccc1C(=O)[N-]c1n[n+](-c2cccc(Cl)c2C)no1 [Example 38] | 5.49 | 1024 pmole c-GMP/mg prot. × 15 minutes | 82100 pmole c-GMP/mg prot. × 15 minutes | 6.70 | Clinical observations (male rats): N.R.; Hematological parameters (male rats): N.R.; Side effects (in words) (male rats): no side effects

The next lines start with results.

pEC50 (pre-contracted trachea) | Guanylate cyclase activity ([1]; 0.01 μM) | Guanylate cyclase activity ([1]; 10 μm (so in the source)) | pIC50 (blood platelets) | Structure (SMILES) | also measured
6.15 | – | – | – | COc1ccc(C(=O)[N-]c2n[n+](-c3cccc(Cl)c3C)no2)cc1 [Example 53] | –
6.22 | 8139 pmole c-GMP/mg prot. × 15 minutes | 18693 pmole c-GMP/mg prot. × 15 minutes | – | Cc1c(Cl)cccc1-[n+]1noc([N-]C(=O)c2cccnc2)n1 [Example 54] | –
4.74 | 0 pmole c-GMP/mg prot. × 15 minutes | 59733 pmole c-GMP/mg prot. × 15 minutes | 5.41 | [NH-]c1c[n+](N2CCOCC2)no1 [SIN-1, reference compound] | Inhibition of PMN chemotaxis (in words) [3]: also able to inhibit these leukocyte functions, but only when used in higher concentrations; c-GMP in PMNs ([2]; 1 μM): 32 fmole/10^6 cells; c-GMP in PMNs ([2]; 10 μM): 220 fmole/10^6 cells; c-GMP in PMNs ([2]; 100 μM): 473 fmole/10^6 cells; Inhibition of leukotriene B4 synthesis (in words) [4]: also able to inhibit these leukocyte functions, but only when used in higher concentrations
5.96 | 7642 pmole c-GMP/mg prot. × 15 minutes | 48126 pmole c-GMP/mg prot. × 15 minutes | 6.70 | Cc1cc(Cl)ccc1-[n+]1noc([NH-])n1 [Example 13, 3-(4-chloro-2-methylphenyl)-1,2,3,4-oxatriazole-5-imine hydrochloride] | –
5.28 | – | – | – | COc1ccc(CCNC(=O)[N-]c2n[n+](-c3cccc(Cl)c3C)no2)cc1OC [Example 47a, 3-(3-chloro-2-methylphenyl)-1,2,3,4-oxatriazole-5-(N-3,4-dimethoxyphenylethylcarbamoyl)imine] | –

From patent US5405857A, “3-substituted 1,2,3,4,-oxatriazole-5-imine compounds, a process for the preparation thereof and a pharmaceutical preparation containing said compounds” (A/S GEA Farmaceutisk Fabrik, priority 1991, dated 1995)
